This note sets out measurements from PMC12066708 (Communications Biology, 2025).

This experiment addresses T1, Kell (Homo sapiens, UniProt P23276).
T1 sequence (P23276 1-732): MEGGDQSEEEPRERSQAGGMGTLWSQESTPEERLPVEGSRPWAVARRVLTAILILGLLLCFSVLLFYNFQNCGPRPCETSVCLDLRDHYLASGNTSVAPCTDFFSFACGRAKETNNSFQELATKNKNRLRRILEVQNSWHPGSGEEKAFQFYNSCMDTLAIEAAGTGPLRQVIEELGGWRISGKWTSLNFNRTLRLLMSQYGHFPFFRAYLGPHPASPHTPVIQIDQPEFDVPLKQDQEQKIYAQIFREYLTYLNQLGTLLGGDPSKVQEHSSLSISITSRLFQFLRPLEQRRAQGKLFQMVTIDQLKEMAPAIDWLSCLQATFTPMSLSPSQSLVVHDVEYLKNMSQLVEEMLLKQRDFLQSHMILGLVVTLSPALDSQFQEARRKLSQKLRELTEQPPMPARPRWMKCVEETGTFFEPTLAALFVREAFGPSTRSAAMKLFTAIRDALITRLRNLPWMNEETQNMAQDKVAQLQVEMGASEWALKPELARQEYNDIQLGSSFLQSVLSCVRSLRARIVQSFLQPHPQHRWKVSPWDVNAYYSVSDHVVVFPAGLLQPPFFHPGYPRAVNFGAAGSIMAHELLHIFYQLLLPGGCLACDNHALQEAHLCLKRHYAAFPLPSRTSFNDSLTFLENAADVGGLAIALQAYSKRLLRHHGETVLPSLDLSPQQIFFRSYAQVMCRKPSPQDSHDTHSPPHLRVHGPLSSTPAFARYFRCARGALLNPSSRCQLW
In words: microscale thermophoresis. In kind it is binding. For orientation: Microscale thermophoresis detects binding through changes in fluorescence in a small temperature gradient.

As for `O=C(O)CNC(=O)C(CS)Cc1ccccc1` (stereo not shown) [thiorphan], the affinity, expressed as Kd, was 33 µM. That is a double-digit micromolar value.

Broadly, the Kd is the constant that tells how readily two partners part at equilibrium. Low values mean tighter binding, high ones weaker binding.
